The record followed here is ChEMBL document CHEMBL1255239, “Increases in SLT2 expression and chitin content are associated with incomplete killing of Candida glabrata by caspofungin” (2008).

The test system of assay [1] is Nakaseomyces glabratus. Briefly: Increase in slt2 gene expression in Candida glabrata 200989 at 0.125 to 16 ug/ml after 180 mins by RT-PCR analysis relative to control. Type of assay: functional.
Assay [2] concerns Nakaseomyces glabratus. Briefly: Antifungal activity against Candida glabrata 200989 at 0 to 32 ug/ml by XTT […] assay. It is filed as functional, organism-based. A general note: Formazan colour is commonly taken as a measure of viable cells.
The test system of assay [3] is Nakaseomyces glabratus. Nature of the assay: Antifungal activity against Candida glabrata 200989 assessed as log reduction in bacterial count at 0.125 to 16 ug/ml by time-kill analysis. It is filed as functional.
Assay [4] concerns Nakaseomyces glabratus. Briefly: Increase in CHS3 gene expression in slt2 deficient Candida glabrata 200989 at 0.125 to 16 ug/ml after 180 mins by RT-PCR analysis. It is filed as functional, organism-based.
Assay [5] has as its system Nakaseomyces glabratus. Nature of the assay: Antifungal activity against slt2 deficient Candida glabrata 200989 assessed as log reduction in bacterial count at 1 ug/ml by time-kill analysis. Type of assay: functional.
The test system of assay [6] is Nakaseomyces glabratus. Nature of the assay: Increase in slt2 gene expression in Candida glabrata 200989 at 0.125 to 16 ug/ml after 12 hrs by RT-PCR analysis. It is filed as functional, organism-based.
Assay [7] relates to Nakaseomyces glabratus. Nature of the assay: Antifungal activity against Candida glabrata 200989 at 0.125 to 16 ug/ml by time-kill analysis. It is filed as functional, organism-based.
In assay [8] the test system is Nakaseomyces glabratus. Nature of the assay: Antifungal activity against slt2 deficient Candida glabrata 200989 assessed as log reduction in bacterial count at 16 ug/ml by time-kill analysis. It is filed as functional.
Assay [9] relates to Nakaseomyces glabratus. Nature of the assay: Increase in chitin content in slt2 deficient Candida glabrata 200989 at 0.125 to 16 ug/ml after 12 hrs. It is filed as functional, organism-based.
Assay [10] has as its system Nakaseomyces glabratus. Briefly: Increase in CHS3 gene expression in Candida glabrata 200989 at 0.125 to 16 ug/ml after 180 mins by RT-PCR analysis relative to control. It is filed as functional.
Assay [11] deals with Nakaseomyces glabratus. Briefly: Increase in chitin content in Candida glabrata 200989 at 0.125 to 16 ug/ml after 12 hrs relative to control. Type of assay: functional.
Assay [12] relates to Nakaseomyces glabratus. Nature of the assay: Increase in slt2 gene expression in Candida glabrata 200989 at 0.125 to 16 ug/ml after 10 mins by RT-PCR analysis relative to control. Type of assay: functional.
Assay [13] concerns Nakaseomyces glabratus. Nature of the assay: Antifungal activity against slt2 deficient Candida glabrata 200989 assessed as log reduction in bacterial count at 0.125 ug/ml by time-kill analysis. Type of assay: functional.

Structures are written as SMILES. The source made the active and inactive calls. The calls are words filed in the database; no cut-off is given here.

Consider `CC[C@H](C)C[C@H](C)CCCCCCCCC(=O)N[C@H]1C[C@@H](O)[C@@H](NCCN)NC(=O)[C@@H]2[C@@H](O)CCN2C(=O)[C@H]([C@H](O)CCN)NC(=O)[C@H]([C@H](O)[C@@H](O)c2ccc(O)cc2)NC(=O)[C@@H]2C[C@@H](O)CN2C(=O)[C@H]([C@@H](C)O)NC1=O` [CASPOFUNGIN], for which the “fold change (FC)” value is recorded as “>=3.8” with Nakaseomyces glabratus [1], greater than 2 in the assay on Nakaseomyces glabratus [10], greater than 3.5 in the assay with Nakaseomyces glabratus [11] and greater than 2 with Nakaseomyces glabratus [12]. Further, the result in the assay with Nakaseomyces glabratus [2], in the assay with Nakaseomyces glabratus [4], in the assay on Nakaseomyces glabratus [6], with Nakaseomyces glabratus [7] and in the assay on Nakaseomyces glabratus [9] was inactive. Further, the log10cfu was 1.6 /ml in the assay with Nakaseomyces glabratus [3], 4.2 /ml in the assay with Nakaseomyces glabratus [5], 4.2 /ml in the assay with Nakaseomyces glabratus [8] and 2.6 /ml in the assay with Nakaseomyces glabratus [13].
